Key:
CCR8 = CCR8 (Homo sapiens, UniProt P51685); assay: gpcrMAX PathHunter beta-arrestin
LE:K-562 = system: LE:K-562; set-up: method as in earlier work; settings: NCI-60 panel; ref [4],[5],[6],[7]; cited from earlier work
DRD2L = DRD2L (Homo sapiens, UniProt P14416); assay: gpcrMAX PathHunter beta-arrestin
CCR10 = CCR10 (Homo sapiens, UniProt P46092); assay: gpcrMAX PathHunter beta-arrestin
HRH1 = HRH1 (Homo sapiens, UniProt P35367); assay: gpcrMAX PathHunter beta-arrestin
LHCGR = LHCGR (Homo sapiens, UniProt P22888); assay: gpcrMAX PathHunter beta-arrestin
PR:PC-3 = system: PR:PC-3; set-up: method as in earlier work; settings: NCI-60 panel; ref [4],[5],[6],[7]; cited from earlier work
CNR1 = CNR1 (Homo sapiens, UniProt P21554); assay: gpcrMAX PathHunter beta-arrestin
HTR1E = HTR1E (Homo sapiens, UniProt P28566); assay: gpcrMAX PathHunter beta-arrestin
Sequence of HTR1E (P28566 whole entry): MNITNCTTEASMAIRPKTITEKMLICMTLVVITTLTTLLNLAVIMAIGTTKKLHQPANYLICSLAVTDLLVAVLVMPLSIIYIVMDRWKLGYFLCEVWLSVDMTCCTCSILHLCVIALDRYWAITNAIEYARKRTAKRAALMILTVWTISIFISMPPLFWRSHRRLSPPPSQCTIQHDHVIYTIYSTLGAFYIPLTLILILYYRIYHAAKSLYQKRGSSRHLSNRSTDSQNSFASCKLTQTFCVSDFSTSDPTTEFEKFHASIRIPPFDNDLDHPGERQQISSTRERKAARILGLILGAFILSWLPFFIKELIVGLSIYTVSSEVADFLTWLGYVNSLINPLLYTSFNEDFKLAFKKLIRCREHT

RXFP3 = RXFP3 (Homo sapiens, UniProt Q9NSD7); assay: gpcrMAX PathHunter beta-arrestin
AGTRL1 = AGTRL1 (Homo sapiens, UniProt P35414); assay: gpcrMAX PathHunter beta-arrestin
P2RY1 = P2RY1 (Homo sapiens, UniProt P47900); assay: gpcrMAX PathHunter beta-arrestin
Sequence of P2RY1 (P47900 whole entry): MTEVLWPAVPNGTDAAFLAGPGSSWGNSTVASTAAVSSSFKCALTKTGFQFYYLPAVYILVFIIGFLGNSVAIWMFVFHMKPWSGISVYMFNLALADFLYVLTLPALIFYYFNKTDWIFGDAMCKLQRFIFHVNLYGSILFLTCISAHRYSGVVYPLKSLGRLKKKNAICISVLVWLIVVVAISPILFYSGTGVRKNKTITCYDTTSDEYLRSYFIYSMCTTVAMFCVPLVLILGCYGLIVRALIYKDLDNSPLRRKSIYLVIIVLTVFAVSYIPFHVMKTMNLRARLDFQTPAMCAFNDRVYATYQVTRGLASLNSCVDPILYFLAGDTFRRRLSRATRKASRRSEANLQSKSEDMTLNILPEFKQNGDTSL

CCR6 = CCR6 (Homo sapiens, UniProt P51684); assay: gpcrMAX PathHunter beta-arrestin
Sequence of CCR6 (P51684 whole entry): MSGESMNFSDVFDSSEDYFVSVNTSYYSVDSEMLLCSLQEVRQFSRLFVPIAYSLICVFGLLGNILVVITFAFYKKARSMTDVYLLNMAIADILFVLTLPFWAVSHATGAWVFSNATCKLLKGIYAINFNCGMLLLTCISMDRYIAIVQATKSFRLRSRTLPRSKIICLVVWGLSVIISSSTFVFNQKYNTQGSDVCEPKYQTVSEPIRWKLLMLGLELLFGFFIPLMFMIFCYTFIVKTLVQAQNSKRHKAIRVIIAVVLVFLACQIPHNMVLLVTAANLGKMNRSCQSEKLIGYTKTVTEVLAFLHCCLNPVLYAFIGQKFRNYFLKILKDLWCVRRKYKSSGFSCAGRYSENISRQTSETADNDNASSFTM

GALR2 = GALR2 (Homo sapiens, UniProt O43603); assay: gpcrMAX PathHunter beta-arrestin
CALCRL-RAMP2 = CALCRL-RAMP2 (Homo sapiens, UniProt O60895+Q16602); assay: gpcrMAX PathHunter beta-arrestin
HTR1F = HTR1F (Homo sapiens, UniProt P30939); assay: gpcrMAX PathHunter beta-arrestin
Sequence of HTR1F (P30939 whole entry): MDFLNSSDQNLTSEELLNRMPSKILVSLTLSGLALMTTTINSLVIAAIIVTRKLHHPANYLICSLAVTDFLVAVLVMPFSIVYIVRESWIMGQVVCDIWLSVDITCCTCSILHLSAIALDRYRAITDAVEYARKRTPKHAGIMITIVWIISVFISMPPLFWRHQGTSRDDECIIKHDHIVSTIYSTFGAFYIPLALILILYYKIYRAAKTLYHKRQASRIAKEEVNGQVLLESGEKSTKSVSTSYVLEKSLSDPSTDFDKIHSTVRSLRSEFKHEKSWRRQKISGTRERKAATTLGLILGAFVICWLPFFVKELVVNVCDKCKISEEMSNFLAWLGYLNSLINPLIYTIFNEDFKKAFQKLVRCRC
LE:MOLT-4 = system: LE:MOLT-4; set-up: method as in earlier work; settings: NCI-60 panel; ref [4],[5],[6],[7]; cited from earlier work
MRGPRX2 = MRGPRX2 (Homo sapiens, UniProt Q96LB1); assay: gpcrMAX PathHunter beta-arrestin
CCR2 = CCR2 (Homo sapiens, UniProt P41597); assay: gpcrMAX PathHunter beta-arrestin
MCHR2 = MCHR2 (Homo sapiens, UniProt Q969V1); assay: gpcrMAX PathHunter beta-arrestin
Sequence of MCHR2 (Q969V1 whole entry): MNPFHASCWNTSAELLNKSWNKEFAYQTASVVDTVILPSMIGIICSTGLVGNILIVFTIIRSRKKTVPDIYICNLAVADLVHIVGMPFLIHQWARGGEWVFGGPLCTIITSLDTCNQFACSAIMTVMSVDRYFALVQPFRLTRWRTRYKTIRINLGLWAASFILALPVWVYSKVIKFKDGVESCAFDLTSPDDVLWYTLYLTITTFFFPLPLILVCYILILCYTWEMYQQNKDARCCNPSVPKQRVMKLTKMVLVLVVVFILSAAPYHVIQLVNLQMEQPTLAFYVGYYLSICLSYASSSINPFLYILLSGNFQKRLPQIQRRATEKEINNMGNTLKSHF

GIPR = GIPR (Homo sapiens, UniProt P48546); assay: gpcrMAX PathHunter beta-arrestin
LC:HOP-92 = system: LC:HOP-92; set-up: method as in earlier work; settings: NCI-60 panel; ref [4],[5],[6],[7]; cited from earlier work
CO:KM12 = system: CO:KM12; set-up: method as in earlier work; settings: NCI-60 panel; ref [4],[5],[6],[7]; cited from earlier work
C5L2 = C5L2 (Homo sapiens, UniProt Q9P296); assay: gpcrMAX PathHunter beta-arrestin
DRD1 = DRD1 (Homo sapiens, UniProt P21728); assay: gpcrMAX PathHunter beta-arrestin
Sequence of DRD1 (P21728 whole entry): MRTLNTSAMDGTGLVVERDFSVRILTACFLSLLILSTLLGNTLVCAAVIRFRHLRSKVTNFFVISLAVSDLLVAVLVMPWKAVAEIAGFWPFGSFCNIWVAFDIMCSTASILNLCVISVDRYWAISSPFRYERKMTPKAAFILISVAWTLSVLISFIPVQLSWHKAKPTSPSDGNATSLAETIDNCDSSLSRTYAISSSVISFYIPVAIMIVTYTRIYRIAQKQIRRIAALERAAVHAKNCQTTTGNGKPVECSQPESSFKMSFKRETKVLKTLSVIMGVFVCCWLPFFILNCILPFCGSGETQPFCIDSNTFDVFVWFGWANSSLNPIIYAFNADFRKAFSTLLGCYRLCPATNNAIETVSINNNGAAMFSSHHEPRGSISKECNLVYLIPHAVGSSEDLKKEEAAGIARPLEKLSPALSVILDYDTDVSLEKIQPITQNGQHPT

TACR1 = TACR1 (Homo sapiens, UniProt P25103); assay: gpcrMAX PathHunter beta-arrestin
ME:UACC-62 = system: ME:UACC-62; set-up: method as in earlier work; settings: NCI-60 panel; ref [4],[5],[6],[7]; cited from earlier work
TBXA2R = TBXA2R (Homo sapiens, UniProt P21731); assay: gpcrMAX PathHunter beta-arrestin
Sequence of TBXA2R (P21731 whole entry): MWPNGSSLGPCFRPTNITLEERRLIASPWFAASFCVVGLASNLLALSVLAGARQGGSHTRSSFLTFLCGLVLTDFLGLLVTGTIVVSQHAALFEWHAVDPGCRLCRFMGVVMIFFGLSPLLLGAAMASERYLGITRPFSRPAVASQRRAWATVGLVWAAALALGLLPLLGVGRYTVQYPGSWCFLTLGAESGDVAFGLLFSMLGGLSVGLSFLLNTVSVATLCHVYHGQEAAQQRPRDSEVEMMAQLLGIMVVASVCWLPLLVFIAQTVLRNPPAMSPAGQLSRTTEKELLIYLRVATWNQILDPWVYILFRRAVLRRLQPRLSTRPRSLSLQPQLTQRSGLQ

OPRM1 = OPRM1 (Homo sapiens, UniProt P35372); assay: gpcrMAX PathHunter beta-arrestin
CO:HCC-2998 = system: CO:HCC-2998; set-up: method as in earlier work; settings: NCI-60 panel; ref [4],[5],[6],[7]; cited from earlier work
DRD2S = DRD2S (Homo sapiens, UniProt P14416); assay: gpcrMAX PathHunter beta-arrestin
PR:DU-145 = system: PR:DU-145; set-up: method as in earlier work; settings: NCI-60 panel; ref [4],[5],[6],[7]; cited from earlier work
RE:SN12C = system: RE:SN12C; set-up: method as in earlier work; settings: NCI-60 panel; ref [4],[5],[6],[7]; cited from earlier work
EDG3 = EDG3 (Homo sapiens, UniProt Q99500); assay: gpcrMAX PathHunter beta-arrestin
Sequence of EDG3 (Q99500 whole entry): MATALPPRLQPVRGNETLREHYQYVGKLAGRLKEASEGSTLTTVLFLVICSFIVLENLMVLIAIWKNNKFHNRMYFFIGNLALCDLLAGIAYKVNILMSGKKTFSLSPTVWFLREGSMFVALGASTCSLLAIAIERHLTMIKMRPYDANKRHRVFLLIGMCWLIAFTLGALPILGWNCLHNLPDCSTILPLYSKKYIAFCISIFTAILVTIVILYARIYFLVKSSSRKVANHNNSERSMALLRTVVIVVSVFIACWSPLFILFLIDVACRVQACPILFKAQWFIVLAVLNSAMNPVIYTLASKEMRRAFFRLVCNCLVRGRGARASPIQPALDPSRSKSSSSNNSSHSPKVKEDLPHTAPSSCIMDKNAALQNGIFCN
CNS:SF-268 = system: CNS:SF-268; set-up: method as in earlier work; settings: NCI-60 panel; ref [4],[5],[6],[7]; cited from earlier work
GCGR = GCGR (Homo sapiens, UniProt P47871); assay: gpcrMAX PathHunter beta-arrestin
CX3CR1 = CX3CR1 (Homo sapiens, UniProt P49238); assay: gpcrMAX PathHunter beta-arrestin
PTHR1 = PTHR1 (Homo sapiens, UniProt Q03431); assay: gpcrMAX PathHunter beta-arrestin
OPRK1 = OPRK1 (Homo sapiens, UniProt P41145); assay: gpcrMAX PathHunter beta-arrestin
GPR120 = GPR120 (Homo sapiens, UniProt Q5NUL3); assay: gpcrMAX PathHunter beta-arrestin
Sequence of GPR120 (Q5NUL3 whole entry): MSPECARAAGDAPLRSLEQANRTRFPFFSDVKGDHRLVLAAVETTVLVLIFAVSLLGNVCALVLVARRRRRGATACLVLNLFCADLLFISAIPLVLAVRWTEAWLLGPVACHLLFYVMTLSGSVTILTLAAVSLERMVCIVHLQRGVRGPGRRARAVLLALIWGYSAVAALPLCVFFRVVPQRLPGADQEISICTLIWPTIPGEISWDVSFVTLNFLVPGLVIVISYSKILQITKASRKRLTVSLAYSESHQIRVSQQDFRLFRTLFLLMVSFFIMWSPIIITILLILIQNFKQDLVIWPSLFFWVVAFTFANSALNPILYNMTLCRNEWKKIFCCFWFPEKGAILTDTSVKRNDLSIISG
RE:A498 = system: RE:A498; set-up: method as in earlier work; settings: NCI-60 panel; ref [4],[5],[6],[7]; cited from earlier work

Sequence of DRD2L (P14416 whole entry): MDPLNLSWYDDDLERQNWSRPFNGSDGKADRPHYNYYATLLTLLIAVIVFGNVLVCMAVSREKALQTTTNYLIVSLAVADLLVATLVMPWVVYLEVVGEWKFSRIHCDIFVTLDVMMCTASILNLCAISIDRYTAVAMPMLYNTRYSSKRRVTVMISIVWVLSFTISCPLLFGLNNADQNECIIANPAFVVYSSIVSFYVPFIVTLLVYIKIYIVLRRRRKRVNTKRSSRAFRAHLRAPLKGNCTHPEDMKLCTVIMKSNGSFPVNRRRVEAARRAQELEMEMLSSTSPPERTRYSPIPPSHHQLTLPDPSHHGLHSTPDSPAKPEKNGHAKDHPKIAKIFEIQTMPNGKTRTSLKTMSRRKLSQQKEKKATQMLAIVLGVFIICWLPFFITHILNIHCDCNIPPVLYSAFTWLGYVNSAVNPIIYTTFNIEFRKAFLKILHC
Sequence of HRH1 (P35367 whole entry): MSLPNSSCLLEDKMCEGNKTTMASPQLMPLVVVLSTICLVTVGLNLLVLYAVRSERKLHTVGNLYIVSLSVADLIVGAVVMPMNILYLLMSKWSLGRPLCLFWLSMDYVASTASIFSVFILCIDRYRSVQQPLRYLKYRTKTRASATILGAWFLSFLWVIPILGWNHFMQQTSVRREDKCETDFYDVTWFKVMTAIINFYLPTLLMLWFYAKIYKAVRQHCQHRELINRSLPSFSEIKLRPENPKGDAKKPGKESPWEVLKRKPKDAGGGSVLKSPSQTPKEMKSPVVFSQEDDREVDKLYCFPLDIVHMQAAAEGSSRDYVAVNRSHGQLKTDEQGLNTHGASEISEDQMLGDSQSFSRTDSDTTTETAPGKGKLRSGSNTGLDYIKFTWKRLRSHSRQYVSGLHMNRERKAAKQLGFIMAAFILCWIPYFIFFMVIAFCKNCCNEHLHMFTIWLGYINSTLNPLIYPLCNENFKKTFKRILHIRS
Sequence of CCR8 (P51685 whole entry): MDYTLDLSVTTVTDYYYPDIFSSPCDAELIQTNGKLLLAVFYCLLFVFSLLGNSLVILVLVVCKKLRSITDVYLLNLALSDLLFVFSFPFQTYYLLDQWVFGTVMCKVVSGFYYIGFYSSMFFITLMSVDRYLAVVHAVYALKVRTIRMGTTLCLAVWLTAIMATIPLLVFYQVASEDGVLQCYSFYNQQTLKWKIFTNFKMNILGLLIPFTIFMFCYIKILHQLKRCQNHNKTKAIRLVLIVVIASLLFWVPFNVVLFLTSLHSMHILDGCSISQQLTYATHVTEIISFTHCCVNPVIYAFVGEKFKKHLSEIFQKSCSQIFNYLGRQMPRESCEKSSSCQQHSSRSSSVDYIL

Q: Which inhibition at 10 µM (CCR8) does the source give for `Cc1c(Cl)cccc1NC(=O)c1sc2nc3c(cc2c1N)C(=O)CCC3` [Compound 1] here?
A: -7%

Q: And the GI50 (LE:K-562)?
A: 37.5 nM

Q: What about the inhibition at 10 µM (DRD2L) of the same compound?
A: -1%

Q: And the inhibition at 10 µM (CCR10)?
A: -49%

Q: What about the inhibition at 10 µM (HRH1) of the same compound?
A: 13%

Q: And the inhibition at 10 µM (LHCGR)?
A: -2%

Q: And the GI50 (PR:PC-3)?
A: 53.5 nM

Q: And the inhibition at 10 µM (CNR1)?
A: 23%

Q: And the inhibition at 10 µM (HTR1E)?
A: 19%

Q: And the inhibition at 10 µM (RXFP3)?
A: -27%

Q: And the inhibition at 10 µM (AGTRL1)?
A: 5%

Q: What about the inhibition at 10 µM (P2RY1) of the same compound?
A: 24%

Q: What about the inhibition at 10 µM (CCR6) of the same compound?
A: -6%

Q: And the inhibition at 10 µM (GALR2)?
A: -5%

Q: And the inhibition at 10 µM (CALCRL-RAMP2)?
A: -23%

Q: What about the inhibition at 10 µM (HTR1F) of the same compound?
A: -21%

Q: What about the GI50 (LE:MOLT-4) of the same compound?
A: 476 nM

Q: What about the inhibition at 10 µM (MRGPRX2) of the same compound?
A: -1%

Q: And the inhibition at 10 µM (CCR2)?
A: -8%

Q: What about the inhibition at 10 µM (MCHR2) of the same compound?
A: -7%

Q: And the inhibition at 10 µM (GIPR)?
A: 2%

Q: And the GI50 (LC:HOP-92)?
A: 47.9 nM

Q: And the GI50 (CO:KM12)?
A: 67.3 nM

Q: What about the inhibition at 10 µM (C5L2) of the same compound?
A: -20%

Q: What about the inhibition at 10 µM (DRD1) of the same compound?
A: 12%

Q: And the inhibition at 10 µM (TACR1)?
A: -3%

Q: What about the GI50 (ME:UACC-62) of the same compound?
A: 50.3 nM

Q: What about the inhibition at 10 µM (TBXA2R) of the same compound?
A: -1%

Q: And the inhibition at 10 µM (OPRM1)?
A: -18%

Q: And the GI50 (CO:HCC-2998)?
A: 213 nM

Q: What about the inhibition at 10 µM (DRD2S) of the same compound?
A: -6%

Q: And the GI50 (PR:DU-145)?
A: 152 nM

Q: And the GI50 (RE:SN12C)?
A: 142 nM

Q: And the inhibition at 10 µM (EDG3)?
A: -2%

Q: What about the GI50 (CNS:SF-268) of the same compound?
A: 238 nM

Q: What about the inhibition at 10 µM (GCGR) of the same compound?
A: 12%

Q: What about the inhibition at 10 µM (CX3CR1) of the same compound?
A: 11%

Q: And the inhibition at 10 µM (PTHR1)?
A: 12%

Q: And the inhibition at 10 µM (OPRK1)?
A: -162%

Q: What about the inhibition at 10 µM (GPR120) of the same compound?
A: 4%

Q: What about the GI50 (RE:A498) of the same compound?
A: 23.2 nM

— publication PMC6149898, “GPCR Modulation of Thieno[2,3-b]pyridine Anti-Proliferative Agents” (Molecules : A Journal of Synthetic Chemistry and Natural …, 2017)
